According to US20230184743A1, “SCREENING METHODS TO IDENTIFY SMALL MOLECULE COMPOUNDS THAT PROMOTE OR INHIBIT THE GROWTH OF CIRCULATING TUMOR CELLS, AND USES THEREOF” (University of Southern California, priority 2020, published 2023):

Experiments:
BRx68-GFP+ cells = experiment: RNA-seq analysis of pools of growing single cell clones; format: cell-based, human; settings: day 6; NAC 0.3 mM, P4D8 1 μM
Method: RNA-seq analysis. BRx68-GFP+ cells were sorted, with 1 cell per well, using the MoFlo cell sorter (Beckman Coulter). Single cells were cultured in the presence of CTC media containing either 1 μM of P1C2, P4D8, or P1G7, or 0.3 mM of NAC or a combination of 1 μM of P1C2 and 0.3 mM of NAC. Cells cultured in media containing DMSO served as a control. All cells were cultured for either 6 days or 13 days at 37° C., 5% CO2 and 4% O2, and media was changed every 3 days. For both day 6 and day 13 groups, only clones with more than 3 cells at day 6 were harvested and pooled to a maximum of 50 cells. […] Libraries were sequenced on an Illumina NextSeq500 to obtain 75 bp-long single-end reads.
RNA-sequencing reads were trimmed for Nextera and Illumina adapter sequences using Trim Galore under default parameters. Trimmed reads were then mapped to the human genome build GRCh37 from Ensembl (ftp:/][/ftp.ensembl.org/pub/grch37/current/fasta/homo_sapiens/dna/Homo_sapiens.GRCh37.dna_sm.primary_as sembly.fa.gz) using STAR under optimized parameters for single-end sequenced data. Aligned reads were then counted via feature-Counts and piped into DESeq2 for normalization to sequencing depth and downstream analysis. […]

[1] = test system: single CTCs from 4 patient-derived CTC lines (BRx07, BRx42, BRx50, and BRx68); experiment: Validation of candidate compounds: single CTC proliferation over 24 days (AUC); format: cell-based, human
Method: (§1) Cell culture. CTC lines were previously derived from metastatic breast cancer patients. CTC lines were cultured in ultra-low attachment plates with RPMI 1640 medium, supplemented with EGF (20 ng/mL), bFGF (20 ng/mL), 1×B27 and 1× antibiotic/antimycotic, in 4% 02 and 5% CO2. Single CTCs were cultured in GravityTRAP™ ULA 96 well Plates (PerkinElmer). Wells on the edges of the plates were not used to avoid influence from evaporation. Media with fresh compounds were exchanged every 3 days by inserting pipet tips onto the platform of the wells to prevent accidentally aspirating suspended CTCs at the bottom. CTC numbers were counted manually under an inverted microscope every 6 days.
FACS sorting. Cells were pelleted and resuspended into single cell suspension in 1% BSA in PBS buffer with 7-AAD. Live single CTCs were sorted directly into 96-well GravityTRAP™ ULA Plates using a MoFlo cell sorter (Beckman Coulter). An inverted microscope was used to manually confirm that there was 1 CTC per well, 1 hour after sorting.
Compounds screening. Compounds were from the StemSelect library obtained from the Choi Family Therapeutic Screening Facility at the Eli and Edythe Broad CIRM Center for Regenerative Medicine and Stem Cell Research at USC. Each compound was given a code to ensure unbiased assessment and blinded to the investigators. Compound information is listed in Appendix, at Table 1 of US Provisional Application No. U.S. 62/990,445, incorporated herein by reference). In the first-round screening, compounds were used with […] concentration. Stocks of compounds (10 mM concentration in DMSO) were stored in aliquots at −80° C. All compounds were thawed and refrozen for a maximum of 2 times. In the second-round validation, fresh compounds were dissolved in DMSO (Millipore sigma), and aliquots were stored at −20° C. and used only once without refreezing. Only wells started from single cells on day 0 after sorting were used in the screening experiment. Data collection was done in batches.
(§2) Statistical analysis. […] AUC was calculated for each well in each batch, by plotting days in the x-axis and the corresponding number of cells in the y-axis, then drawing a line to connect the number of cells from the starting count day to the next count day until the end day, and finally calculating the area under this line as the sum of areas of trapezoids. […] Statistical tests were performed using R. For absolute number of cells quantification, total number of cells at end of experiment in each well in each batch was compared between treated cells and untreated control and significance was analyzed with Student t test. For other experiments, data were analyzed with Student t test, and represent the means±SEM of at least triplicate samples or averages ±SD of independent analyses, as indicated. […]

single BRx68 cells = experiment: Single CTC proliferation over 24 days (AUC), BRx68 line; format: cell-based, human
Method: as §1
(§3) FACS sorting. […]
as §2, with “test.” for “test. For other experiments, data were analyzed with Student t test, and represent the means±SEM of at least triplicate samples or averages ±SD of independent analyses, as indicated.”

[2] = test system: breast cancer circulating tumor cell (CTC); experiment: Breast cancer CTC growth screen; format: cell-based, human; settings: added at 1 uM
Method: Using the assay system described herein CTC were contact with a panel of small molecule drugs and the effect of the drugs on cell growth, migration, proliferation and gene expression was measured. […] This was initially found in a breast cancer circulating tumor cell (CTC) growth screen.

[3] = test system: MCF7 cells, MDA-MB-231 cells, T47D cells; experiment: Senescence assay: β-galactosidase activity; format: cell-based; settings: various concentrations
Source text: (A) MCF7 cells. (B) MDA-MB-231 cells. (C) T47D cells.
Because an arrested state in which the cell remains viable, are not stimulated to divide by serum or passage in culture, a specific cell cycle profile is illicited that differs from most damage-induced arrest processes or contact inhibition. Characteristics of senescence cells include an enlarged cell size, expression of pH-dependent β-galactosidase activity, and an altered pattern of gene expression. To determine these characteristics, CTC cells were cultured with a compound of Formula II or cx-4945 (Silmitasertib) at various concentrations and β-galactosidase activity was measured.

BRx42 = experiment: Single CTC proliferation over 24 days (AUC), BRx42 line; format: cell-based, human
Method: as §1, §3
as §2, with “test.” for “test. For other experiments, data were analyzed with Student t test, and represent the means±SEM of at least triplicate samples or averages ±SD of independent analyses, as indicated.”

CCNCc1cc(C(C)(C)C)c(O)c(C(C)(C)C)c1 [P4D8, LY 231617]
lipid metabolism pathway enrichment (IPA of differentially expressed genes) compared with control (BRx68-GFP+ cells): enriched
single cell growth ([1]; other lines (than BRx68)): inhibit growth
single cell growth (single BRx68 cells): promote single cell growth

COc1cc(Nc2ncc3ccn(-c4cccc(CCC#N)c4)c3n2)cc(OC)c1OC [Formula II, 3-(3-(2-(3,4,5-Trimethoxy-phenylamino)-7H-pyrrolo[2,3-d]pyrimidin-7-yl)phenyl)propionitrile]
proliferation of single CTCs (AUC measurement) ([1]; 4 different CTC lines over 24 days): inhibition of the proliferation
CTC growth [2]: stopped growing
induced senescence (β-galactosidase activity) relative to CX-4945 [3]: 3-4 fold

N#C/C(=C\c1ccc(-c2cc(Cl)ccc2Cl)o1)C(=O)Nc1cccc2ncccc12 [P1G3, AGK2]
single cell growth (BRx42): promote single cell growth
